These results are taken from patent US6689762B1, “Composition and methods for treatment of HIV infection” (Enzon Pharmaceuticals, Inc., priority 1998, dated 2004).

“And” between values parts separate entries of the source, which are not always exact repeats. Identical values can stand only once.

The test system of experiment [1] is HIV-RT levels of HIV-1 infected CEM/0 cell pellets. The experiment can be described thus: HIV-RT ELISA (Reverse Transcriptase Assay, non-radioactive) in cell pellets of HIV-1 infected CEM/0 T-cells. The experiment is classed as cell-based. As to conditions: Table 9. An excerpt: The following is a general procedure for the HIV-reverse transcriptase assay:
The cell line used for these studies is CCRF/CEM/O, a human T-leukemic cell line. PEG-ASNase (ONCASPAR) is provided by Rhone-Poulenc Rorer. Saquinavir is commercially available. RPMI-1640 media (Irvine Scientific, Irvine, Calif.) is enriched with 10% Fetal Calf Serum (Gemini Biosource, Calabasas, Calif.), 5% 1M Hepes Buffer solution and 5% Non-essential amino acids (Irvine Scientific, Irvine, Calif.). The drug concentrations used are as follows:
Briefly, 2×10^6 cells/ml are stimulated with PHA+ media for 48 hours at 37° C. with 5% CO2. Also, the same number of cells are incubated in PHA(phytohemagglutinin) free media for 48 hours to serve as the negative control. At this point the cells are inoculated with the HIV-1 virus as per standard protocol. PEG-ASNase and/or Saquinavir are added to the cells in the appropriate concentrations (see above). The control cells are resuspended in drug-free media for the duration of the exposure which lasted seven days. At day five, two 1 ml aliquots of media are removed from the flasks and stored under liquid nitrogen. At day seven, two more 1 ml aliquots of media are removed from the flasks and stored under liquid nitrogen. In addition, the remaining cells are pelleted and stored at −80° C.
The samples produced from this experiment are itemized and then assayed for HIV-RT using the Reverse Transcriptase Assay, non-radioactive (Boehringer Mannheim). The standard curve is determined and the HIV-RT levels for the experimental samples are calculated.
This experiment is carried out using a similar procedure, and the same concentrations of materials as in Experiment 7, however the exposure of the HIV virus in T-cell pellets to PEG-ASNase and Saquinavir alone, and in combination is measured. It should be noted that “PEG” in Table 2a represents PEG-ASNase. […]
A general note: In an ELISA, binding on a coated surface is turned into a signal by an enzyme label.

Experiment [2] deals with HIV-RNA in supernatant of HIV-1 infected CEM/0 T-cells. The experiment can be described thus: HIV-1 quantitative RNA assay (HIV-1 Monitor) in supernatants of CEM/0 T-cells. Format: cell-based. The arrangement: inhibition of HIV-RNA in the supernatants in comparison to untreated control / % OF CONTROL / % control: concentration or dose not given beside the values. From the text: It should be noted that “PEG” in Table 3 represents PEG-ASNase.
Materials and Methods: The cell line used for these studies is CEM/0, a human T-cell leukemic cell line. PEG-ASNase (ONCASPAR) is provided by Rhone-Poulenc Rorer. Saquinavin is commercially available. AZT is purchased from Sigma. MISID, a ribonucleotide reductase inhibitor, is as described in Nandy P, Lien E J, Avramis V I, Med. Chem. Res. 1995, 5:664-679. RPMI-1640 media (Irvine Scientific, Irvine, Calif.), is enriched with 10% Fetal Calf Serum (Gemini Biosource, Calabasas, Calif.), 5% 1M Hepes Buffer solution and 5% Non-essential amino acids (Irvine Scientific, Irvine, Calif.). The drug concentrations used are as follows:
Briefly, 3×10^6 cells/ml are stimulated with PHA+ media for 48 hours at 37° C. with 5% CO2. Also, the same number of cells are incubated in PHA free media for 48 hours to serve as the negative control. At this point the cells are inoculated with the HIV-1 virus as per standard protocol. Note that in this experiment, the HIV containing supernatant from the PHA-stimulated healthy human peripheral mononuclear cells (PBMC) is not removed from the PHA-stimulated CEM/0 cell culture. […] These virus particles are continuously released by already infected T-cells and/or lymph nodes of patients.
The experimental drugs are added to the cells in the appropriate concentrations at the same time as viral inoculation or 90 minutes after the viral incubation, a time sufficient for the T-cells to be infected and start producing new HIV-1 virus particles. The control cells are resuspended in drug-free media for the duration of the exposure which lasted seven days. Aliquots of media from the control flasks only are obtained on day 5 post Rx. At day seven, three 1 ml each, aliquots of media are removed from the flasks and stored under liquid nitrogen. In addition, the remaining cells are split into three and then pelleted and stored at −80° C. Supernatant specimens are obtained form these T-cell cultures and are frozen at −80° C. The samples produced from this experiment are itemized. The cell pellets of the cellular cultures (see Experiment 9) from the 90 minute viral incubation flasks are assayed for HIV-RNA quantitative assay using a kit for the assay, non-radioactive. […] The standard curve is determined and the HIV-RNA levels for the experimental samples are calculated and reported previously.
This experiment is carried out using a similar procedure, and the same concentrations of materials as in Experiment 10, however the exposure of HIV-RNA in T-cell supernatants to a combination of PEG-ASNase, Saquinavir, AZT and 3TC is measured. It should be noted that “PEG” in Table 10 represents PEG-ASNase.

Take `Nc1ccn([C@@H]2CS[C@H](CO)O2)c(=O)n1` [3TC, lamivudine]: the “MEAN X3 (HIV-RT)” value in experiment [1] was 0.004 ng/well. Also, the MEAN in experiment [2] (Table 10) came out at 1752 copies/mL. In experiment [2] (Table 10, per specimen, day 7 post Rx, PEG 0.400 IU/ml, SAQ 25 uM, AZT 1 uM, 3TC 1 uM, combinations PEG 0.233 IU/ml + SAQ 14.52 uM), the “N*” value is 1700 copies/mL and 1836 copies/mL and 1719 copies/mL. For the same compound, in experiment [2] (Table 10 and Experiment 11), the “% OF CONTROL” value was determined as 39.58%.
